{"source": "paper PMC7094781", "about": "(Journal of Molecular Biology, 2007)", "biological_target": "SARS 3CL^pro (Severe acute respiratory syndrome coronavirus, UniProt P0C6U8)"}
{"substance": "acetyl-leucyl-alanyl-alanyl-ketomethyl(cycloglutamine)-phthalhydrazide [inhibitor 2]", "values": [{"measurement": "bonding mode to Cys145, soaking", "value": "the episulfide and the deacylating (major) mixed forms"}]}
